According to patent publication US5672585A, “Method and composition for treating thrombosis” (priority 1995, dated 1997):
Like-named read-outs stand apart in the source and are kept apart here. Where no end group is shown, it is not given here. [ ]: non-standard residue; d: D form. The star is where a group is joined. Pmc = Cc1c(C)c(S(=O)(=O)*)c(C)c2c1OC(C)(C)CC2; Pen = CC(C)(S)[C@H](N)C(=O)O

Columns and labels:
[1] = tested on: platelets; assay: Ex vivo inhibition of platelet aggregation (Table IV); format: in vivo, dog; settings: for ex vivo inhibition of platelet aggregation (%): dose as listed per peptide in Table IV; for ex vivo platelet aggregation: doses of Table IV
Method: (§1) Platelet aggregation assays were performed following the methods of this Example or those of Example IX.G. Platelet aggregation was assessed using the method of Born, (Nature 194:927-929 (1962)), incorporated herein by reference. Briefly, the change in light transmission was measured through a stirred suspension of platelets in an aggregometer (Model 400 VS, Chrono-Log, Hayertown, Pa., USA). […] In studies using thrombin, the PRP was gel-filtered on Sepharose 2B in divalent ion-free Tyrode's solution containing 2% BSA. For all studies, the reference standard was platelet-poor plasma, which was obtained by centrifuging PRP at 1000×g for 5 min.
(§2) All aggregation studies were performed at 37° C. with a constantly stirred suspension of 3×10^8 platelets/ml. (Platelet count was determined with the aid of a hemacytometer.) Peptides and stimulants were added to these suspensions in 1% dilutions. The PRP and gel-filtered platelets were used within three hours from the time of blood collection.
Peptide anti-aggregation potencies were determined from dose-responsive curves for the inhibition of the maximum aggregation responses stimulated by physiologic doses of ADP (10 μm) and thrombin (2 U/ml).
Using the method described in Example V to measure ex vivo inhibition of platelet aggregation and the method described in Example VII to measure bleeding, four additional peptides were tested. These peptides included 11J, 11Q, 11K and 11V.

[2] = biological target: vitronectin receptor (Vn-R); assay: VnR binding, ELISA or liposome attachment assay (Table I); parameters: species or system human; settings: purified receptor
Method: Receptor and ligand purifications were performed according to the methods in this Example or those in Examaple XI.C. Receptors were purified according to the procedures of Pytela et al. (Methods Enzymol. 144:475 (1987)), incorporated herein by reference. […] Except where stated, all procedures were carried out at 4° C. The peptide column was washed with three volumes of Tris-buffered saline (TBS) containing 1 mM Ca^2+ and 25 mM OG and then with TBS containing 1 mM Ca^2+ and 25 mM octyl thioglucoside (OTG) at room temperature. […] Finally, Ca^2+ and Mg^+2 were added to eluted fractions to achieve final concentrations of 1 mM for both ions.
This assay was performed with minor modifications, according to the method of Pytela et al., Methods Enzymol. 144:475 (1987), incorporated herein by reference. Briefly, 1:4 mixture of labelled and unlabelled phosphatidylcholine (PC) liposomes was dissolved under nitrogen and diluted with an equal volume of purified receptor (purified as described in Example II) to achieve a fixed predetermined receptor-liposome concentration ratio. This mixture was then dialyzed overnight at 4° C. in phosphate buffered saline (PBS) containing 1 mM Ca^2+. An aliquot of the dialyzed sample was counted to assess radioactive content; the receptor-liposome mixture was then diluted to obtain a set radioactivity per unit volume.
Microtiter plates were coated with 10 μg of vitronectin. Non-specific sites were blocked for 2 hours at 37° C. in PBS containing 5 mg/ml BSA and 1 mM each of CaCl2 and MgCl2. The plates were then rinsed twice with PBS containing 1 mM Ca^+2 and Mg^+2, and 100 μl of the liposome-receptor mixture was added to each well. If necessary, peptides were added before this step in a 1-10% dilution. The plates were then incubated at 4° C. for 24 hours. The following day, the liquid in each well was aspirated and the plates were washed twice with PBS containing 1 mM Ca^+2 and Mg^+2. Finally, 100 μl of 2% SDS was added, the plates were shaken for 10-15 minutes, and the supernatants were collected, vortexed, and subjected to liquid scintillation counting. This procedure typically yielded ca. 1000 total and 100 non-specific counts per well.
In parallel studies with the platelet aggregation experiments (described in Example V), the apparent affinities of peptides for GP IIbIIa, fibronectin and vitronectin receptors were determined. Receptor-binding assays (as described in Examples III and IV) with purified receptors, were used to assess the abilities of the peptides to displace the binding of receptors to their receptor-specific ligands.
(§4) Those for VnR and GP IIb/IIIa were determined either by ELISA or liposome attachment assay (Example IV).

[3] = tested on: canine platelets; assay: Canine platelet aggregation in vitro (ADP, arachidonic acid, collagen); format: cell-based, dog; settings: stimulated by 10 μm ADP, […] arachidonic acid or 9.6 micrograms/ml collagen
[4] = tested on: platelets; assay: ADP-stimulated platelet aggregation in platelet-rich plasma (Table I); settings: read-out: ADP-Stimulated Aggregation; ADP 10 μm, citrated platelet-rich plasma, 37° C.; * concentrations unconfirmed by amino acid composition analysis
[5] = tested on: platelets; assay: Thrombin-stimulated platelet aggregation (Table I); settings: read-out: Thrombin Stimulated Aggregation; thrombin 2 U/ml, gel-filtered platelets, 37° C.
[6] = tested on: platelets; format: cell-based; settings: for platelet aggregation potency relative to analogue 3: more potent than analogue 3; for increase in platelet aggregation potency relative to analogue 5: substitution of Leu at position 3
Method: as §1, with “Platelet” for “Platelet aggregation assays were performed following the methods of this Example or those of Example IX.G. Platelet”, “Nature” for “(Nature”, “(1962),” for “(1962)),”
as §2, with “platelets/mL.” for “platelets/ml.”
The peptides described in this Example were synthesized according to the methods of Examples I and XI. Selectivity and potency were measured according to the methods of Examples II through XI. The peptide identification numbers used in this Example are consistent and relevant to this Example only. Some of the peptides are identified by other nomenclature elsewhere in this document.

[7] = biological target: T1, Fibronectin receptor (Fn-R) (Homo sapiens, UniProt P05556+P08648); assay: FnR binding, competitive ELISA (Table I); settings: purified receptor, * concentrations unconfirmed by amino acid composition analysis
T1 construct: Fibronectin receptor (Fn-R) was similarly purified from (100 mM) octyl glucoside-extracted human placenta; from tissue; host or cells: human placenta
Method: Peptide binding to purified Fn-R was determined by using a competitive enzyme-linked immunosorbent assay (ELISA) in which fibronectin is immobilized and the binding of solubilized Fn-R and the binding of solubilized FN-R, in the presence of various concentrations of peptide analogue, is detected with a polyclonal anti-Fn-R antibody followed by a labelled anti-rabbit IgG conjugate.
Microtiter plates were coated with 110 μl of human fibronectin (at 2 μg/ml) in TBS. The plates were washed three times with TBS that contained 0.05% Tween 20. 50 microliters of receptor in TBS containing 20 mM octylglucoside and 2 mM NmCl2 was added to each well. 50 microliters of peptide in the same buffer was then added in 10-fold serial dilutions. The plates were incubated for three hours at room temperature, washed with 200 μl of the above TBS-Tween buffer. 100 μl of affinity-purified rabbit anti-human fibronectin receptor antibody was added to the wells and the plates were incubated for an additional two hours, washed twice with TBS-Tween and then distilled water. Affinity-purified goat anti-rabbit IgG conjugated to horseradish peroxidase (100 μl) was then added to each well. Bonding reactions were incubated for 16 hours at room temperature. The following day, the plates were washed twice with TBS-Tween and then distilled water. […]
IC50 s for FnR were determined by ELISA (Example III).

[8] = biological target: GP IIb/IIIa (Homo sapiens, UniProt P05106+P08514); assay: IIb/IIIa binding, ELISA or liposome attachment assay (Table I); parameters: Platelet glycoprotein IIb/IIIa was purified from outdated human platelets; from tissue; host or cells: outdated human platelets; settings: purified receptor
Method: Microtiter plates, 96 wells were coated (Type Nunc 1 Maxispor™) with 10 μg/ml purified fibrinogen (100 μl/well), and allowed to stand overnight at 4° C. The plates were washed three times with PBS Tween, 0.137M NaCl, 0.003M KCl, 0.008M Na2 HPO4, pH 7.4 at room temperature, 0.05% Tween-20 and blocked for 1 to 2 hours at room temperature with 200 μl/well TNCNT (which is 0.5% BSA, 20 mM Tris, pH 7.5 at room temperature, 120 mM NaCl, 0.2% NAN3, 2 mM CaCl2, 0.05% Tween 20, [Calbiochem RIA grade or better]) on a plate shaker. The plates were again washed three times with PBS/Tween and 50 μl of sample in TNCNT is added. The mixture was incubated for 15 minutes at room temperature on a plate shaker. The stock solution of purified GPIIb IIIa receptor from human platelets, (0.4-1.0 mg/ml GPIIb IIIa in 0.1% Triton X-100, 1 mM CaCl2, 20 mM Tris, 150 mM NaCl, 0.05% NaN3 in 0.3M N-acetyl glucosamine pH 7.5, stored at -70° C.), was reconstituted in TNCNT. Fifty (50) μl of this diluted GPIIb IIIa was then added to each well and incubated on a plate shaker at room temperature. […] The optical density at 492 nm vs 405 nm was recorded and IC50 values are determined.
as §4

[9] = tested on: coronary thrombosis; assay: Electrically induced canine coronary thrombosis, time to full occlusion; format: in vivo; settings: dog
Method: Male mongrel dogs weighing 14 to 20 kg were selected based on proper aggregation of their platelets in response to arachidonic acid, collagen, and adenosine disphosphate (ADP) and based on similar weights and hemodynamic properties.
Before surgery, the animals were anesthetized with sodium pentobarbital (30 mg/kg, i.v.) and then intubated and ventilated on room air with positive pressure using a respirator (Harvard Apparatus, S. Natick, Mass.) at a volume of 30 ml/kg and a frequency of 12 breaths/min. Surgery, performed under aseptic conditions, was begun with the placement of cannulae into the left carotid artery and jugular vein for monitoring arterial blood pressure (Statham P23 pressure transducer, Gould, Inc., Cardiovascular Products, Oxnard, CA) and administering intravenous fluids.
The heart was exposed via a left thoracotomy through the 5th intercostal space. A 2-cm segment of the left circumflex coronary artery (LCCA) was isolated from surrounding tissue by blunt dissection. […] The intra-coronary electrode was constructed by attaching a 25-gauge hypodermic needle tip to a 30-gauge Teflon-insulated silver-coated copper wire. The mechanical occluder was constructed of stainless steel in a C shape with a Teflon screw (2 mm diameter) on top. It was adjusted to control vessel circumference and decrease the reactive hyperemic flow due to a 10-sec (full) occlusion by 50-70% without affecting basal coronary blood flow (FIG. 1C). A monopolar epicardial electrode was sutured to the surface of the ventricle in the region of LCCA distribution to monitor ischemic changes in the electrocardiogram (ECG). The left atrium was cannulated with polythylene tubing for administration of the peptide. Continuous recordings of blood pressure, limb lead II ECG, epicardial electrogram, and mean and phasic LCCA blood flow were obtained on a Model 7 polygraph (Grass Instrument Co., Quincy, Mass.).
One hour after the completion of surgery, a 100 micro-amp continuous anodal direct current delivered from a 9 volt nickel-cadmium battery was applied to the intimal surface of the LCCA. The anode of the battery was in series with a 250,000 ohm potentiometer and the intraluminal coronary artery electrode. The electric circuit was completed by placing the cathode in a subcutaneous site. Electrical stimulation was applied for three hours. At the conclusion of each experiment, the heart was fibrillated electrically and quickly removed, and the LCCA was dissected free as far as possible to verify the position of the implanted anodal electrode.
(§3) Animals were randomly assigned to two treatment groups: vehicle control (i.e., normal saline) or RGD peptides at various concentrations. Peptides were administered intra-atrially in both bolus and continuous injections. Each bolus injection consisted of 0.5 to 10 mg/kg and was administered 15 minutes before application of the current. A continuous infusion of the same peptide was then started immediately after completion of this initial injection. Animals received a 25 μg/kg/min to 200 μg/kg/min infusion. The anti-thrombotic effects of the peptides were monitored until 30 minutes after the occurrence of a persistent, occlusive thrombus or five hours after the initiation of electrical stimulation (whichever resulted first). If an occlusive thrombus had not developed within four hours after the initiation of current, the peptide infusion was stopped.
Coronary thrombosis was quantified as the time to full occlusion. The effects of the various peptide treatments on coronary thrombosis is illustrated in FIG. 4.

[10] = tested on: platelets; assay: Ex vivo platelet aggregation in the canine coronary thrombosis study; settings: dog, 10 mg/kg injection
Method: For all ex vivo studies (see FIGS. 3A, 3B1, 3B2, 3B3, 3C1 and 3C2), control aggregation values were standardized to the percentages of light transmission observed in PRP and PPP samples (0% and 100%, respectively).
as §3
Platelet counts and ex vivo aggregation studies were performed one hour before and 1, 3, and 5 hours after application of anodal direct current.
Platelet aggregation was also determined ex vivo at one, three, and five hours after current application. For these studies, arachidonic acid, or collagen was again used to stimulate the platelets.

[11] = substitution of Arg at position 4

T1 sequence (P08648 42-894 limits assumed): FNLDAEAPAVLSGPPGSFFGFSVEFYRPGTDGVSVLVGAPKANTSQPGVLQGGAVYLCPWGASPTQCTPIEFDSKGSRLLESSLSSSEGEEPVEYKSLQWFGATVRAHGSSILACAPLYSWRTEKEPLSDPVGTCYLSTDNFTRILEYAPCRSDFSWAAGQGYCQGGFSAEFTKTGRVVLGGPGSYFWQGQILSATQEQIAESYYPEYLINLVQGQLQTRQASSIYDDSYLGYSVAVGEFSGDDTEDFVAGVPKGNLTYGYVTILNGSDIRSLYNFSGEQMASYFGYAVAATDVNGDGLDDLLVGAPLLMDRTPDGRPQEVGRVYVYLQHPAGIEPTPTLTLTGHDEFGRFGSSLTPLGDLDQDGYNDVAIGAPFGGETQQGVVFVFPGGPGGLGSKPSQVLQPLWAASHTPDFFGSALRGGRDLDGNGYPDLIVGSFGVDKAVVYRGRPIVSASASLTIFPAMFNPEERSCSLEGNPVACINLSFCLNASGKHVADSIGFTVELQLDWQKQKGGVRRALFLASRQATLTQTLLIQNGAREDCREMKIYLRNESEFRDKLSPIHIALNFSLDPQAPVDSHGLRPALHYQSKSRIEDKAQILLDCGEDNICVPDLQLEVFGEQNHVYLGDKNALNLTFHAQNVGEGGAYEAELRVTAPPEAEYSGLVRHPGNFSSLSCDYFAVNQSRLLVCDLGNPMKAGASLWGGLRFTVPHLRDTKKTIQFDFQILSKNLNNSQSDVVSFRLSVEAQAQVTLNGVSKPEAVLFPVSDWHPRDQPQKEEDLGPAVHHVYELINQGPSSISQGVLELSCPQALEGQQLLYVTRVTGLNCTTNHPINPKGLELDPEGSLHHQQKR
T1 sequence (P08648 895-1049 partner limits assumed): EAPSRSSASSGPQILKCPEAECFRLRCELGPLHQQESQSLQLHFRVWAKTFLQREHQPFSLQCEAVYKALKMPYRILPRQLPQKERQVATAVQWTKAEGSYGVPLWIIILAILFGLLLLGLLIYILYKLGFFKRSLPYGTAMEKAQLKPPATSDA
T1 sequence (P05556 21-798): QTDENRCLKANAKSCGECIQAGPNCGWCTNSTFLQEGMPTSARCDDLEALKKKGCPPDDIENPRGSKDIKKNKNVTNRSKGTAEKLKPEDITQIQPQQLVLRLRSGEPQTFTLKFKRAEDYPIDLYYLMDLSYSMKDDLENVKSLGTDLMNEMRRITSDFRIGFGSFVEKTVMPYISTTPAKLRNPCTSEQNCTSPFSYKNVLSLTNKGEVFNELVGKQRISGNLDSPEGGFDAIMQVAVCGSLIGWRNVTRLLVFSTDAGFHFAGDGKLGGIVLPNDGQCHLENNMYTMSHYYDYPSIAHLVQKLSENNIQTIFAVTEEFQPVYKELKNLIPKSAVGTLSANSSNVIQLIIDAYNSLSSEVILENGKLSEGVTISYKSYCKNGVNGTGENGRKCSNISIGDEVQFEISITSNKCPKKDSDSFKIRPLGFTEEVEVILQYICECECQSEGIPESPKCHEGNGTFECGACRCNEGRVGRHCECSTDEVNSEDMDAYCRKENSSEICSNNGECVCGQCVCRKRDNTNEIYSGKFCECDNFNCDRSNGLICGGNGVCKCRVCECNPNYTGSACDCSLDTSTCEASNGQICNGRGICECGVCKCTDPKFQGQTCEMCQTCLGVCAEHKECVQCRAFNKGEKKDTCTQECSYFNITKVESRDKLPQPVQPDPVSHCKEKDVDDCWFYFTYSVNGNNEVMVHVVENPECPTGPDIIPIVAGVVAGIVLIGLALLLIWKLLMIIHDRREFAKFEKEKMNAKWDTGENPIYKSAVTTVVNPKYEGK
Sequence of GP IIb/IIIa (P08514 32-887 limits assumed): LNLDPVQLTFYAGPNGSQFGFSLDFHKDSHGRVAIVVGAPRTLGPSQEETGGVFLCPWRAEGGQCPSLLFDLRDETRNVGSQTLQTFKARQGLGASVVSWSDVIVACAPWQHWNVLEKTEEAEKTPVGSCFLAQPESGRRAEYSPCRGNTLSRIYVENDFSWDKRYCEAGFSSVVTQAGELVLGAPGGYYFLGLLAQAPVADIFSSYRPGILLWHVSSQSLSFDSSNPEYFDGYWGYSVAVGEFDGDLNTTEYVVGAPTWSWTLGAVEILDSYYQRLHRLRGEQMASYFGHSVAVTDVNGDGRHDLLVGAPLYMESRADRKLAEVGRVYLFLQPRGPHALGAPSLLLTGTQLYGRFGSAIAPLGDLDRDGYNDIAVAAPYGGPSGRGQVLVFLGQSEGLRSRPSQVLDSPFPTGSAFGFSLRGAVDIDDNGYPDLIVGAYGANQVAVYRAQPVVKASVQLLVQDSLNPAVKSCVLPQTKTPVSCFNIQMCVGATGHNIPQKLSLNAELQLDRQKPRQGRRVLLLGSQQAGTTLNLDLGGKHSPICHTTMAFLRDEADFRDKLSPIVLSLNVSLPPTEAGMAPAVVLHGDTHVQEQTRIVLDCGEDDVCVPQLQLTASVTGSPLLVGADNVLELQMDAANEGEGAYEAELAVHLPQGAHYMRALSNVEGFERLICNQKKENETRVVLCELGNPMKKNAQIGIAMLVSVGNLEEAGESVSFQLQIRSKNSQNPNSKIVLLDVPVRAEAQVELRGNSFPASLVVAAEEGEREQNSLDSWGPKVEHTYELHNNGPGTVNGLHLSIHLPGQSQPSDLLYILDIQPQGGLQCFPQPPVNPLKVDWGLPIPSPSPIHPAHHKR
Sequence of GP IIb/IIIa (P08514 891-1039 partner limits assumed): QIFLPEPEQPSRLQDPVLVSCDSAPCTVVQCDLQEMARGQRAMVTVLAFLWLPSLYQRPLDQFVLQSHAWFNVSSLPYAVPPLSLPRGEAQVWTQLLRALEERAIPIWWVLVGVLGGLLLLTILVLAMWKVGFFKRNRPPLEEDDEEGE
Sequence of GP IIb/IIIa (P05106 27-788): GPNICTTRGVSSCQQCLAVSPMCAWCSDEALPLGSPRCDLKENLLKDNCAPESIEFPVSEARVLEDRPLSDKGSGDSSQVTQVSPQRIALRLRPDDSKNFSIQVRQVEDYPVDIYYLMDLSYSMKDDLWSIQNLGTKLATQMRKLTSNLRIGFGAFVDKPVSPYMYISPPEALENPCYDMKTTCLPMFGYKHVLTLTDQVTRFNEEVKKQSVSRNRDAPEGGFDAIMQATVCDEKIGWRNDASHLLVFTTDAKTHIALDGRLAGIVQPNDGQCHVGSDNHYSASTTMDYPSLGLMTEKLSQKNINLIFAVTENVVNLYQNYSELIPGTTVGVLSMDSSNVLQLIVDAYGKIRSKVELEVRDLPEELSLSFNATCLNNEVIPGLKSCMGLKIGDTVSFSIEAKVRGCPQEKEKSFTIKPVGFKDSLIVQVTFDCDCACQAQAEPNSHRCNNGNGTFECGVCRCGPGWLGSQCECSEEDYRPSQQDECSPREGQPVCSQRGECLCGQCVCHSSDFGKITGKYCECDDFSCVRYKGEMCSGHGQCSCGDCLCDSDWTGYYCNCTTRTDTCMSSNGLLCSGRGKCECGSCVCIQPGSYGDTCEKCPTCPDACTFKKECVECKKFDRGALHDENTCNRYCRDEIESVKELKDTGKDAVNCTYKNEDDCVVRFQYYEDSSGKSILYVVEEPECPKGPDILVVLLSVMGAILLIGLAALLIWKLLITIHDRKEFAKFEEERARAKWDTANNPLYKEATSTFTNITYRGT

Substance: Ac- CNPKGD(Y--OMe)RC--NH2 [Peptide 11Q]
- ex vivo inhibition of platelet aggregation (%) [1]: > 95%
- ex vivo platelet aggregation [1]: inhibited ex vivo platelet aggregation

Substance: LRGDSPDG
- IC50 [2]: 0.2 µM

Substance: GRGDSP [reference compound]
- IC50 ([3]; read-out: concentration inhibiting all three canine platelet aggregation responses by 50%): ~130 µM

Substance: R2(Pen)GRGDTPCA
- IC50 [4]: 8.2 µM
- IC50 [5]: 2.7 µM

Substance: G(Pen)GRGDTPCA
- IC50 [4]: 22.3 µM
- IC50 [5]: 28 µM

Substance: G[Pen]GRGDSFCA (cysteine pairing not given here)
- IC50 [4]: 115 µM

Substance: YRGDSPDG
- IC50 [2]: 0.08 µM

Substance: R(Tmc)GHRGDLRCR [analogue 7]
- platelet aggregation potency relative to analogue 3 [6]: 2 fold

Substance: Ac- CNPRGD(Y--OMe)(dR)C--NH2 [Peptide 11L]
- platelet aggregation potency compared with analogue 32 [6, 11]: decrease in potency

Substance: R[Pen]GHRGDTRCR (cysteine pairing not given here)
- IC50 [4]: 8.8 µM

Substance: R(Pen)GRGDTPCK
- IC50 [4]: 7.6 µM

Substance: G(Pen)LRGDSRCA
- IC50 [4]: 41 µM
- IC50 [5]: 49 µM

Substance: R(orn)GHRGDLRDR
- IC50 [4]: > 200 µM

Substance: Ac- CNPRGD(Y--OMe)AC--NH2 [Peptide 11K]
- platelet aggregation potency compared with analogue 32 [6, 11]: substantial decreases in platelet aggregation potency
- ex vivo inhibition of platelet aggregation (%) [1]: > 98%
- ex vivo platelet aggregation [1]: inhibited ex vivo platelet aggregation

Substance: Ac- CNPRGD(Y--OMe)EC--NH2 [Peptide 11J]
- decrease in platelet aggregation potency relative to analogue 32 [6, 11]: 15 fold
- ex vivo inhibition of platelet aggregation (%) [1]: > 98%
- ex vivo platelet aggregation [1]: inhibited ex vivo platelet aggregation

Substance: R(Pmc)GHRGDLRCR [analogue 5]
- platelet aggregation potency relative to analogue 3 [6]: 3 fold

Substance: (Pmp)GRGDTPCA
- IC50 [4]: 85 µM

Substance: VRGDSPDG
- IC50 [2]: 0.24 µM
- IC50 [7]: 0.04 µM
- IC50 [8]: 0.27 µM

Substance: Ac- CNPRGD(Y--OMe)(Nle)C--NH2 [Peptide 11V]
- ex vivo inhibition of platelet aggregation (%) [1]: > 98%
- ex vivo platelet aggregation [1]: inhibited ex vivo platelet aggregation

Substance: (Pmp)GHRGDLRCA
- platelet aggregation potency relative to analogue 1 ([6]; more potent than analogue 1): 2 fold

Substance: G(Pen)LRGDTPCA
- IC50 [4]: 86 µM

Substance: G(Pen)FRGDSFCA
- IC50 [4]: > 200 µM

Substance: Ac- CNPRGD(Y--OMe)(Cit)C--NH2 [Peptide 11S]
- platelet aggregation potency compared with analogue 32 [6, 11]: substantial decreases in platelet aggregation potency

Substance: G(Pen)GRGDRPCA
- IC50 [4]: 22.3 µM

Substance: R(Pen)GRGDTPCA
- IC50 [4]: 7 µM
- IC50 [5]: 3.1 µM

Substance: FRGDSPDG
- IC50 [2]: 0.04 µM
- IC50 [7]: 2.4 µM

Substance: Ac-CIPRGD(Y-OMe)RC-NH2 [Peptide 10R]
- increase in platelet aggregation potency relative to analogue 26 [6]: 3-4 fold

Substance: R(Pmc)GHRGDVRCR
- IC50 [4]: 0.69 µM
- increase in platelet aggregation potency relative to analogue 5 [6]: 4 fold

Substance: L(Pen)GHRGDLRCA
- IC50 [4]: 10.5 µM

Substance: R[Pen]GRGDLRCA (cysteine pairing not given here)
- IC50 [4]: 16 µM
- IC50 [5]: 13 µM

Substance: R(Pen)GRGDWPCR [Peptide 4R]
- coronary thrombosis, occlusion ([9]; 3 mg/kg): ineffective
- coronary thrombosis, time to full occlusion ([9]; 10 mg/kg): prevented occlusion throughout the duration of the study
- IC50 [5]: 0.53 µM
- ex vivo platelet aggregation by ADP, AA and collagen [10]: unresponsive to all modes of stimulation at all time points
- IC50 ([3]; read-out: IC50 against canine platelet aggregation): 1.5 to 5 µM

Substance: R(Pmc)GHRGDYRCR
- IC50 [4]: 1 µM

Substance: R(Pmc)GHRGDFRCR
- IC50 [4]: 0.62 µM
- increase in platelet aggregation potency relative to analogue 5 [6]: ~5 fold

Substance: G(Pen)GHRGDTRCA
- IC50 [4]: 11.3 µM
- IC50 [5]: 17 µM

Substance: Ac- CNPRGD(Y--OMe)KC--NH2 [Peptide 11R]
- inhibitory activity retained relative to analogue 32 [6, 11]: 20%

Substance: R[Pen]GRGDSRCA (cysteine pairing not given here)
- IC50 [4]: 12 µM
- IC50 [5]: 12 µM

Substance: G(Pen)LRGDSPCA
- IC50 [4]: 415 µM
- IC50 [5]: 308 µM

Substance: Ac-CNPRGD(O-N-Butyl-Y)RC-NH2 [Ac CNPRGD(O-n-butyl-Tyr)RC--NH2]
- IC50 [4]: 0.1 µM

Substance: R(Pen)GRGDTPCR
- IC50 [4]: 6.3 µM
- IC50 [5]: 2 µM

Substance: R(D-Pen)GHRGDLRCR [analogue 4]
- platelet aggregation potency relative to analogue 3 [6]: 2 fold

Substance: G[Pen]YRGDSPCA (cysteine pairing not given here)
- IC50 [4]: 47 µM

Substance: (t-but-am-Pmp)GHRGDLR(Pen)A [(t-but-am-P mp)GHRGDLR(Pen)A]
- IC50 [4]: 89 µM
